Source: ChEMBL document CHEMBL3797148, “Antiprotozoal activity of dehydroabietic acid derivatives against Leishmania donovani and Trypanosoma cruzi” (Medchemcomm, 2016)

Columns and labels:
Leishmania donovani [1] = assay: Antileishmanial activity against axenic amastigote stage of Leishmania donovani MHOM/SD/1962/1S-Cl2d assessed as inhibition of parasite growth at 50 uM after 24 hrs by Alamar blue viability assay; assay type: functional; conditions: read-out: GI
Leishmania donovani [2] = assay: Antileishmanial activity against axenic amastigote stage of Leishmania donovani MHOM/SD/1962/1S-Cl2d assessed as inhibition of parasite growth at 15 uM after 24 hrs by Alamar blue viability assay; assay type: functional; conditions: read-out: GI
L6 = assay: Cytotoxicity against rat L6 cells after 72 hrs by Alamar blue assay; assay type: cell-based; conditions: L6, 72 h
[3] = Selectivity index, ratio of IC50 for rat L6 cells to IC50 for amastigote stage of Trypanosoma cruzi Tulahuen C2C4 expressing LacZ gene infected in rat L6 cells; assay type: toxicity, cell-based; conditions: read-out: Ratio IC50
Trypanosoma cruzi [4] = assay: Potency index of ratio of Benznidazole IC50 to compound IC50 for antiparasitic activity against amastigote stage of Trypanosoma cruzi Tulahuen C2C4; assay type: functional
Trypanosoma cruzi [5] = assay: Antiparasitic activity against amastigote stage of Trypanosoma cruzi Tulahuen C2C4 expressing LacZ gene infected in rat L6 cells after 96 hrs by photometric analysis; assay type: functional, organism-based; conditions: Tulahuen C2C4, L6, 96 h
Leishmania donovani [6] = assay: Antileishmanial activity against axenic amastigote stage of Leishmania donovani MHOM/SD/1962/1S-Cl2d assessed as inhibition of parasite growth at 5 uM after 24 hrs by Alamar blue viability assay; assay type: functional; conditions: read-out: GI
Leishmania donovani [7] = assay: Antileishmanial activity against axenic amastigote stage of Leishmania donovani MHOM/SD/1962/1S-Cl2d assessed as inhibition of parasite growth after 24 hrs by Alamar blue viability assay; assay type: functional, organism-based
[8] = Cytotoxicity against human THP1 cells after 24 hrs by Alamar blue viability assay; assay type: cell-based; conditions: THP-1, 24 h
[9] = Selectivity index, ratio of IC50 for human THP-1 cells to IC50 for Leishmania donovani MHOM/SD/1962/1S-Cl2d axenic amastigotes; assay type: toxicity, cell-based; conditions: read-out: Ratio IC50
Leishmania donovani [10] = assay: Antileishmanial activity against Leishmania donovani promastigotes infected in human THP1 cells assessed as inhibition of amastigote growth by luciferase assay; assay type: functional, organism-based; conditions: THP-1
Leishmania donovani [11] = assay: Antileishmanial activity against axenic amastigote stage of Leishmania donovani MHOM/SD/1962/1S-Cl2d assessed as inhibition of parasite growth at 1 uM after 24 hrs by Alamar blue viability assay; assay type: functional; conditions: read-out: GI
Leishmania infantum = assay: Antileishmanial activity against promastigote stage of Leishmania infantum MCAN/ES/2001/UCM-10 after 72 hrs by Neubauer haemocytometric analysis; assay type: functional, organism-based; conditions: MCAN/ES/2001/UCM-10, 72 h
Leishmania braziliensis = assay: Antileishmanial activity against promastigote stage of Leishmania braziliensis MHOM/BR/75/M2904 after 72 hrs by Neubauer haemocytometric analysis; assay type: functional; conditions: MHOM/BR/75/M2904, 72 h
Trypanosoma cruzi [12] = assay: Antiparasitic activity against epimastigote stage of Trypanosoma cruzi IRHOD/CO/2008/SN3 after 72 hrs by Neubauer haemocytometric analysis; assay type: functional, organism-based; conditions: IRHOD/CO/2008/SN3, 72 h

| IC50 (Trypanosoma cruzi [5]) | Compound | inhibition of growth at 50 µM (Leishmania donovani [1]) | inhibition of growth at 15 µM (Leishmania donovani [2]) | IC50 (L6) | selectivity ratio [3] | further results |
| --- | --- | --- | --- | --- | --- | --- |
|  | CC[C@H](NC(=O)[C@]1(C)CCC[C@]2(C)c3ccc(C(C)C)cc3CC[C@@H]12)C(=O)O | 85% | 5.9% |  |  |  |
|  | COC(=O)[C@H](CC(C)C)NC(=O)[C@]1(C)CCC[C@]2(C)c3ccc(C(C)C)cc3CC[C@@H]12 | 64.9% |  |  |  |  |
| 1.4 µM | COC(=O)[C@@H](Cc1cccnc1)NC(=O)[C@]1(C)CCC[C@]2(C)c3ccc(C(C)C)cc3CC[C@@H]12 | 98.6% | 16.5% | 24.1 µM | 17 | Ratio IC50 (Trypanosoma cruzi [4]): 1.5 |
| 83.1 µM | CC(C)c1ccc2c(c1)CC[C@H]1[C@](C)(C(=O)N[C@H](Cc3cccnc3)C(=O)O)CCC[C@]21C | 9.8% |  | 174 µM | 2 |  |
|  | CC(C)c1ccc2c(c1)CC[C@H]1[C@](C)(C(=O)N[C@H](Cc3ccc[n+]([O-])c3)C(=O)O)CCC[C@]21C | 1.9% |  |  |  |  |
|  | COC(=O)CNC(=O)[C@]1(C)CCC[C@]2(C)c3ccc(C(C)C)cc3C(=O)C[C@@H]12 | 37.1% |  |  |  |  |
|  | CC[C@H](NC(=O)[C@]1(C)CCC[C@]2(C)c3ccc(C(C)C)cc3CC[C@@H]12)C(=O)OC | 57.6% |  |  |  |  |
|  | COC(=O)[C@@H](Cc1ccccc1)NC(=O)[C@]1(C)CCC[C@]2(C)c3ccc(C(C)C)cc3CC[C@@H]12 | 77.5% | 51.5% |  |  |  |
|  | CC(C)c1ccc2c(c1)/C(=N\O)C[C@H]1[C@](C)(C(=O)N[C@@H](CC3CCCCC3)C(=O)O)CCC[C@]21C | 97.7% | 52.3% |  |  |  |
| 32.7 µM | COC(=O)[C@@H](Cc1ccc[n+]([O-])c1)NC(=O)[C@]1(C)CCC[C@]2(C)c3ccc(C(C)C)cc3CC[C@@H]12 | 27.1% |  | 85.9 µM | 3 |  |
|  | CC(C)c1ccc2c(c1)CC[C@H]1[C@](C)(C(=O)NCC(=O)O)CCC[C@]21C | 69.3% |  |  |  |  |
|  | COC(=O)[C@@H](Cc1c[nH]c2ccccc12)NC(=O)[C@]1(C)CCC[C@]2(C)c3ccc(C(C)C)cc3CC[C@@H]12 | 46.9% |  |  |  |  |
|  | CSCC[C@@H](NC(=O)[C@]1(C)CCC[C@]2(C)c3ccc(C(C)C)cc3CC[C@@H]12)C(=O)O | 98% | 47% |  |  |  |
|  | CC(C)c1ccc2c(c1)CC[C@H]1[C@](C)(C(=O)N[C@H](C(=O)O)C(C)C)CCC[C@]21C | 90.6% | 10.9% |  |  |  |
|  | COC(=O)[C@H](Cc1ccccc1)NC(=O)[C@]1(C)CCC[C@]2(C)c3ccc(C(C)C)cc3CC[C@@H]12 | 68.6% |  |  |  |  |
|  | CC(C)C[C@H](NC(=O)[C@]1(C)CCC[C@]2(C)c3ccc(C(C)C)cc3CC[C@@H]12)C(=O)O | 91.2% | 34.8% |  |  |  |
|  | COC(=O)[C@@H](Cc1ccc(O)cc1)NC(=O)[C@]1(C)CCC[C@]2(C)c3ccc(C(C)C)cc3CC[C@@H]12 | 98.9% | 94.7% |  |  | inhibition of growth at 5 µM (Leishmania donovani [6]): 38.8%; IC50 (Leishmania donovani [7]): 11.1 µM; IC50 [8]: 21.7 µM; selectivity ratio [9]: 2 |

| IC50 (Trypanosoma cruzi [5]) | Compound | inhibition of growth at 50 µM (Leishmania donovani [1]) | inhibition of growth at 15 µM (Leishmania donovani [2]) | IC50 (L6) | selectivity ratio [3] | further results |
| --- | --- | --- | --- | --- | --- | --- |
| 5.8 µM | COC(=O)[C@H](CC1CCCCC1)NC(=O)[C@]1(C)CCC[C@]2(C)c3ccc(C(C)C)cc3/C(=N\O)C[C@@H]12 | 90.8% | 85.8% | 13.5 µM | 2 | inhibition of growth at 5 µM (Leishmania donovani [6]): 52.9%; IC50 (Leishmania donovani [7]): 5.6 µM; IC50 [8]: 37.2 µM; selectivity ratio [9]: 7 |
| 33.1 µM | CC(C)c1ccc2c(c1)CC[C@H]1[C@](C)(C(=O)N[C@@H](Cc3ccccc3)C(=O)O)CCC[C@]21C | 98.1% | 77.6% | 45.4 µM | 1 | inhibition of growth at 5 µM (Leishmania donovani [6]): 53.1%; IC50 (Leishmania donovani [7]): 2.5 µM; IC50 [8]: 82.2 µM; selectivity ratio [9]: 33; IC50 (Leishmania donovani [10]): 9 µM |
|  | CC(C)c1ccc2c(c1)CC[C@H]1[C@](C)(C(=O)N[C@H](Cc3c[nH]c4ccccc34)C(=O)O)CCC[C@]21C | 98.3% | 53.9% |  |  |  |
|  | C[C@@H]1[C@H](O)[C@@H](C)/C=C/C=C/C=C/C=C/C=C/C=C/C=C/[C@H](O[C@@H]2O[C@H](C)[C@@H](O)[C@H](N)[C@@H]2O)C[C@@H]2O[C@](O)(C[C@@H](O)C[C@@H](O)[C@H](O)CC[C@@H](O)C[C@@H](O)CC(=O)O[C@H]1C)C[C@H](O)[C@H]2C(=O)O [AMPHOTERICIN B] |  |  |  |  | inhibition of growth at 1 µM (Leishmania donovani [11]): > 90% |
| 101 µM | CC(C)c1ccc2c(c1)CC[C@H]1[C@](C)(C(=O)O)CCC[C@]21C [DEHYDROABIETIC ACID] | 91.1% | 59.2% | 151 µM | 1 |  |
|  | COC(=O)[C@H](CC1CCCCC1)NC(=O)[C@]1(C)CCC[C@]2(C)c3ccc(C(C)C)cc3CC[C@@H]12 | 43.2% |  |  |  |  |
|  | COC(=O)[C@]1(C)CCC[C@]2(C)C3=C(CC[C@@H]12)C(=O)C(C(C)C)=CC3=O |  |  |  |  | IC50 (Leishmania infantum): 14.2 µM; IC50 (Leishmania braziliensis): 14.2 µM; IC50 (Trypanosoma cruzi [12]): 14.2 µM |
| 27.7 µM | CC(C)c1ccc2c(c1)CC[C@H]1[C@](C)(C(=O)N[C@H](Cc3ccccc3)C(=O)O)CCC[C@]21C | 98.3% | 96.8% | 60.6 µM | 2 | inhibition of growth at 5 µM (Leishmania donovani [6]): 54.1%; IC50 (Leishmania donovani [7]): 5.2 µM; IC50 [8]: 41.4 µM; selectivity ratio [9]: 8 |
|  | COC(=O)[C@@H](CCSC)NC(=O)[C@]1(C)CCC[C@]2(C)c3ccc(C(C)C)cc3CC[C@@H]12 | 88.7% | 50.8% |  |  |  |
| 22.8 µM | CC(C)c1ccc2c(c1)CC[C@H]1[C@](C)(C(=O)N[C@@H](CC3CCCCC3)C(=O)O)CCC[C@]21C | 98.1% | 92.2% | 29.1 µM | 1 | inhibition of growth at 5 µM (Leishmania donovani [6]): 63.6%; IC50 (Leishmania donovani [7]): 1.7 µM; IC50 [8]: 40.5 µM; selectivity ratio [9]: 24; IC50 (Leishmania donovani [10]): 5 µM |
|  | COC(=O)CNC(=O)[C@]1(C)CCC[C@]2(C)c3ccc(C(C)C)cc3CC[C@@H]12 | 28.7% |  |  |  |  |
| 4.2 µM | COC(=O)[C@H](CC1CCCCC1)NC(=O)[C@]1(C)CCC[C@]2(C)c3ccc(C(C)C)cc3C(=O)C[C@@H]12 | 90.2% | 76.3% | 33.5 µM | 8 | inhibition of growth at 5 µM (Leishmania donovani [6]): 33.3%; IC50 (Leishmania donovani [7]): 4.6 µM; IC50 [8]: 62.1 µM; selectivity ratio [9]: 14; IC50 (Leishmania donovani [10]): 6.6 µM |
|  | CC(C)c1ccc2c(c1)CC[C@H]1[C@](C)(C(N)=O)CCC[C@]21C | 55.2% |  |  |  |  |
| 3.9 µM | CC(C)c1ccc2c(c1)C(=O)C[C@H]1[C@](C)(C(=O)N[C@@H](CC3CCCCC3)C(=O)O)CCC[C@]21C | 99.1% | 98.6% | 77.2 µM | 20 | inhibition of growth at 5 µM (Leishmania donovani [6]): 82.8%; IC50 (Leishmania donovani [7]): 4 µM; IC50 [8]: 52 µM; selectivity ratio [9]: 13; IC50 (Leishmania donovani [10]): 2.3 µM |
|  | COC(=O)[C@@H](NC(=O)[C@]1(C)CCC[C@]2(C)c3ccc(C(C)C)cc3CC[C@@H]12)C(C)C | 57.1% |  |  |  |  |
|  | CC(C)c1ccc2c(c1)CC[C@H]1[C@](C)(C(=O)N[C@H](Cc3ccc(O)cc3)C(=O)O)CCC[C@]21C | 96.1% | 9.8% |  |  |  |
